Tests used:
[1] = set-up: method as in PMID 23353940; settings: rats, HPLC-PDA ref 7; cited from earlier work
[2] = tested on: A673, H526 and U20S cells; test: Immunoblot analyses of DNA damage repair proteins; type: cell-based, human; settings: 2μM, 6h and 24h
Protocol: Protein concentrations were determined using the BCA kit (Pierce Biotechnology, Rockford, IL) according to the manufacturer's instructions. Protein lysates (20-100 μg) were electrophoretically resolved by SDS/PAGE, transferred to nitrocellulose membrane, and probed with the indicated primary antibodies: Phospho-ATM (Ser1981) (D6H9) from rabbit (1:500, 5883, Cell Signaling, Danvers, MA), Phospho-BRCA1 (Ser1524) from rabbit (1:500, 9009, Cell Signaling), DNA-PK from rabbit (1:500, 4602, Cell Signaling), Mre11 (31H4) from rabbit (1:500, 4847, Cell Signaling) and Rad50 from rabbit (1:500, 3427, Cell Signaling). Membranes were then incubated with a 1:5,000 dilution of a peroxidase conjugated corresponding secondary antibody. Equal loading of the protein samples was confirmed by parallel western blots for β-actin (1:5,000, ab822750; Abcam). Detection was performed using the ECL-Enhanced Chemiluminescence Detection System (GE Healthcare Biosciences, Pittsburgh, PA) according to the manufacturer's instructions. Blots were visualized by autoradiography.

cord blood CD34+ cells = test: Comet assay; type: cell-based, human; settings: 3h
Protocol: (§1) We used comet assay, which includes single cell gel electrophoresis to assess DNA breaks when exposed to radiation or DNA damaging agents. […] Olive moment (micrometers), a product of tail DNA% and the distance between the centroids of head and tail, is an accurate parameter of DNA damage. […] Gamma-H2AX (γH2AX) phosphorylation is the initial step in DNA damage response following double stranded breaks and is responsible for recruiting DNA repair proteins.
(§2) Comet assay was performed according to the protocol described earlier. Cells were treated with BO-1055 at 2μM concentration for 3h, or immediately after exposure to 8Gy radiation after which they were isolated and mixed with 1% low melting point agarose in a tube. The cells in agarose were transferred to slides coated with normal melting point agarose. The agarose-immobilized cells were lysed in alkaline solution and the agarose trapped DNA was electrophoresed. DNA was stained with ethidium bromide and image acquisition was done immediately. DNA damage quantification was performed using OpenComet v1.3, an open-source software plugin in Image J 1.47v software (NIH, USA) for automated analysis. Olive moment, which is the product of tail DNA% and the distance between the intensity-weighted centroids of head and tail was taken from the output for analysis.

A673 cells = test: Comet assay; type: cell-based, human; settings: A673, 3h
Protocol: as §1
as §2, with “Cells were treated with BO-1055 at 2μM concentration for 3h, or immediately after exposure to 8Gy radiation after which they were isolated and mixed with 1% low melting point agarose in a tube.” left out

[3] = tested on: patient derived Ewing sarcoma xenografts; test: Cyclophosphamide resistant patient-derived Ewing sarcoma xenografts; type: in vivo, NSG mice; settings: 30mg/kg/dose i.v. q2d x 4, tumors progressed to 500mm^3 after MTD cyclophosphamide
Protocol: Patient derived xenografts were established from Ewing sarcoma patients who progressed through first line chemotherapy that included cyclophosphamide, doxorubicin, vincristine, ifosfamide and etoposide (PS3). When these Ewing sarcoma xenografts (n = 10) reached 100mm^3, they were randomized to control and treatment groups.
All mouse experiments were performed at the animal core facility at MSKCC under an approved protocol following the IACUC guidelines. Five to seven-week-old NOD/SCID IL2R gamma null (NSG) mice (bred at the Mouse Genetics Core Facility, MSKCC) were used for in vivo experiments. All mouse experiments were done following the IACUC guidelines at the animal facility at MSKCC. Tumors were induced using 10^6 A673 cells or A204 cells in 0.2ml 1:1 cellular medium, Matrigel matrix (BD Bioscience, Bedford, MA) and injected subcutaneously (s.q) into the right flank. The tumors were measured every 3 d with a caliper, and the diameters were recorded. Tumor volume was calculated by the formula a^2 b/2 where ‘a’ is the smallest and ‘b’ is the largest diameter. When the tumors reached 100mm^3, we randomized mice into control and drug treatment groups. Treatment groups received BO-1055 by tail vein injection at 10mg/kg, 20mg/kg and 30mg/kg q2d x 5 doses for mice bearing A673 xenografts. BO-1055 was given at 30mg/kg q2d x 5 doses for mice bearing A204 xenografts. […]

SMILES: CN(C)CCNC(=O)c1cccc(NC(=O)Nc2ccc(N(CCCl)CCCl)cc2)c1 [BO-1055]
- elimination [1]: slow elimination
- tissue distribution [1]: rapid distribution to all organs except brain
- pATM ([2]; A673, H526 and U20S): activation of pATM
- pBRCA1 ([2]; U20S): upregulation of pBRCA1
- Rad50 ([2]; sensitive lines (A673, H526)): Upregulation of Rad50
- olive moment relative to radiation (XRT, 8Gy) (cord blood CD34+ cells): relatively less
- olive moment relative to radiation (XRT, 8Gy) (A673 cells): comparable
- comet tail size (DNA breaks) (A673 cells; increasing concentration): increased tail size
- tumor response [3]: tumor regression

— article PMC5190008, “BO-1055, a novel DNA cross-linking agent with remarkable low myelotoxicity shows potent activity in sarcoma models” (Oncotarget, 2016)
